Here are results for 21 compounds from patent US4743587A, “Hydroxamic acid based collagenase inhibitors” (G. D. Searle & Co., priority 1986, dated 1988).

Usually IC50 stands for the concentration needed to halve the response being measured. High values mean weaker potency in that assay, low ones greater potency in that assay.

This assay concerns the target T1, Human Rheumatoid Synovial Collagenase (Homo sapiens, UniProt P03956).
T1 construct: from tissue
T1 sequence (P03956 100-469): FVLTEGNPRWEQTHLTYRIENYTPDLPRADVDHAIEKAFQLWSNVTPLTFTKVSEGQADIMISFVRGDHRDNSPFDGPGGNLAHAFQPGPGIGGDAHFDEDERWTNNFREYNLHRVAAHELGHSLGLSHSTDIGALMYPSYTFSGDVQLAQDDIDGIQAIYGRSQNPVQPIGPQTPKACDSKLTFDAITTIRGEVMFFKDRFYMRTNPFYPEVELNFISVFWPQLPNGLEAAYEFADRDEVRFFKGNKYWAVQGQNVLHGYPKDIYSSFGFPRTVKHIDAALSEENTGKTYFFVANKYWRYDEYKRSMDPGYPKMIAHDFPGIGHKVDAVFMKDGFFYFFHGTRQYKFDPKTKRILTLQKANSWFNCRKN
In words: Collagenase inhibition (acetyl 14C collagen hydrolysis, procedure of Cawston and Barrett). It counts as biochemical. As to conditions: incubated at 37° C. for 16 hours with native acetyl 14C collagen and collagenase, Tris HCl-CaCl2, pH 7.6. As for the experimental part:
This was determined following the procedure of Cawston and Barrett, (Anal. […] The collagen is acetyl ^14 C collagen. The samples are centrifuged to sediment undigested collagen and an aliquot of the radioactive supernatant removed for assay on a scintillation counter as a measure of hydrolysis.

`CNC(=O)[C@H](Cc1ccc(OC)cc1)NC(=O)C(CC(C)C)C(C)C(=O)NO` (single isomer, unassigned) [3(A), N-[3-(N'-Hydroxycarboxamido)-2-(2-methylpropyl)butanoyl]-O-methyl-L-tyrosine N-Methylamide] registered an IC50 of 0.4 µM. Next, `CNC(=O)[C@H](Cc1ccc(OC)cc1)NC(=O)C(CC(C)C)C(C)C(=O)NO` (single isomer, unassigned) [3(B), N-[3-(N'-Hydroxycarboxamido)-2-(2-methylpropyl)butanoyl]-O-methyl-L-tyrosine N-Methylamide]: 20 µM; `CNC(=O)[C@H](Cc1ccc(OC)cc1)NC(=O)C(CC(C)C)C(C)C(=O)NO` (single isomer, unassigned) [3(C), N-[3-(N'-Hydroxycarboxamido)-2-(2-methylpropyl)butanoyl]-O-methyl-L-tyrosine N-Methylamide]: 0.02 µM; `CNC(=O)[C@H](Cc1ccc(OC)cc1)NC(=O)C(CC(C)C)C(C)C(=O)NO` (single isomer, unassigned) [3(D), N-[3-(N'-Hydroxycarboxamido)-2-(2-methylpropyl)butanoyl]-O-methyl-L-tyrosine N-Methylamide]: 0.3 µM. As for `CNC(=O)[C@H](Cc1ccc(OC)cc1)NC(=O)C(CC(C)C)C(C(=O)NO)c1ccccc1` (single isomer, unassigned) [4(A), N-[3-(N'-Hydroxycarboxamido)-2-(2-methylpropyl)-3-phenylpropanoyl]-O-methyl-L-tyrosine N-Methylamide], the figure is 0.6 µM.

In the case of `CNC(=O)[C@H](Cc1ccc(OC)cc1)NC(=O)C(CC(C)C)C(C(=O)NO)c1ccccc1` (single isomer, unassigned) [4(B), N-[3-(N'-Hydroxycarboxamido)-2-(2-methylpropyl)-3-phenylpropanoyl]-O-methyl-L-tyrosine N-Methylamide], the IC50 is 1 µM.

`CNC(=O)[C@H](C)NC(=O)C(CC(=O)NO)CC(C)C` (single isomer, unassigned) [8(A), N-[3-(N'-Hydroxycarboxamido)-2-(2-methylpropyl)propanoyl]-L-alanine N-Methylamide] registered an IC50 of 0.15 µM. Next, `CNC(=O)[C@H](Cc1ccc(O)cc1)NC(=O)C(CC(=O)NO)CC(C)C` (single isomer, unassigned) [9(A), N-[3-(N'-Hydroxycarboxamido)-2-(2-methylpropyl)propanoyl]-L-tyrosine N-Methylamide]: 0.037 µM. Next, `CNC(=O)[C@H](Cc1ccc(O)cc1)NC(=O)C(CC(=O)NO)CC(C)C` (single isomer, unassigned) [9(B), N-[3-(N'-Hydroxycarboxamido)-2-(2-methylpropyl)propanoyl]-L-tyrosine N-Methylamide]: 0.52 µM; `CCCCC(CC(=O)NO)C(=O)N[C@@H](Cc1ccc(OC)cc1)C(=O)NC` (single isomer, unassigned) [12(B)]: 1 µM. `CNC(=O)[C@H](Cc1ccc(OC)cc1)NC(=O)C(CC(=O)NO)Cc1ccccc1` (single isomer, unassigned) [13(A), N-[3-(N'-Hydroxycarboxamido)-2-benzylpropanoyl]-O-methyl-L-tyrosine N-Methylamide]: the IC50 is 5 µM. Next, `CNC(=O)[C@H](Cc1ccc(OC)cc1)NC(=O)C(CC(=O)NO)Cc1ccccc1` (single isomer, unassigned) [13(B), N-[3-(N'-Hydroxycarboxamido)-2-benzylpropanoyl]-O-methyl-L-tyrosine N-Methylamide]: more than 100 µM; `CCCCC(C(=O)NO)C(CC(C)C)C(=O)N[C@@H](Cc1ccc(OC)cc1)C(=O)NC` (single isomer, unassigned) [18(A), N-[3-(N'-Hydroxycarboxamido)-2-(2-methylpropyl)heptanoy]-O-methyl-L-tyrosine N-Methylamide]: 0.2 µM; `CCCCC(C(=O)NO)C(CC(C)C)C(=O)N[C@@H](Cc1ccc(OC)cc1)C(=O)NC` (single isomer, unassigned) [18(B), N-[3-(N'-Hydroxycarboxamido)-2-(2-methylpropyl)heptanoy]-O-methyl-L-tyrosine N-Methylamide]: more than 100 µM. On to `CNC(=O)[C@H](C)NC(=O)C(CC(C)C)C(C)C(=O)NO` (single isomer, unassigned) [19(A), N-[3-(N'-Hydroxycarboxamido)-2-(2-methylpropyl)butanoyl]-L-alanine N-Methylamide], for which the IC50 came out at 100 µM. In turn, `CNC(=O)[C@H](C)NC(=O)C(CC(C)C)C(C)C(=O)NO` (single isomer, unassigned) [19(B), N-[3-(N'-Hydroxycarboxamido)-2-(2-methylpropyl)butanoyl]-L-alanine N-Methylamide] returned an IC50 of 0.3 µM. As for `CCCCC(CC(=O)NO)C(=O)N[C@@H](Cc1ccc(OC)cc1)C(=O)NC` (stereo partly drawn) [12(A)], the figure is 0.03 µM; as for `CNC(=O)[C@H](Cc1ccc(OC)cc1)NC(=O)C(C)CC(=O)NO` (stereo partly drawn) [Example 5, N-[3-(N'-Hydroxycarboxamido)-2-methylpropanoyl]-O-methyl-L-tyrosine N-Methylamide], 100 to 1000 µM; as for `CNC(=O)[C@H](Cc1ccc(OC)cc1)NC(=O)CCC(=O)NO` [Example 6, N-[3-(N'-Hydroxycarboxamido)propanoyl]-O-methyl-L-tyrosine N-Methylamide], more than 1000 µM. As to `CNC(=O)[C@H](Cc1ccc(OC)cc1)NC(=O)C(=CC(=O)NO)CC(C)C` [Example 7, N-[3-(N'-Hydroxycarboxamido)-2-(2-methylpropyl)propenoyl]-O-methyl-L-tyrosine N-Methylamide], the midpoint of inhibition, the IC50, lay at 0.7 µM. Next, `CNC(=O)[C@H](Cc1ccc(OC)cc1)NC(=O)C(CC(C)C)=C(C)C(=O)NO` [Example 20, N-[3-(N'-Hydroxycarboxamido)-2-(2-methylpropyl)-Δ^2,3-butenoyl]-O-methyl-L-tyrosine N Methylamide]: 1 µM.
